Reference: article PMC9977398, “Next-generation membrane-active glycopeptide antibiotics that also inhibit bacterial cell division” (Chemical Science, 2023)
Values after ≈ are worked out from the molar mass of the structure shown. Where two headings read alike, the source gives them in different places.

Assays:
MRSA = assay: Cytoplasmic membrane depolarization assay, DiSC3(5); format: cell-based, S. aureus; conditions: for time to membrane depolarisation post-treatment: exponentially growing MRSA, 10 μM; for time to dissipation of membrane potential post-treatment: stationary phase cells of MRSA, 20 μM
Source text: The membrane disruption properties of both VanQbiph (4) and VanQAmC10 (8) were studied to correlate the extent of membrane perturbation and bactericidal activity against both exponentially growing and non-growing bacterial cells. Their ability to depolarize the membrane was monitored using the fluorescent probe DiSC3(5) (3,3′-dipropylthiadicarbocyanine iodide). DiSC3(5) is sensitive to the membrane potential and as it accumulates in the membrane, the fluorescence intensity decreases due to self-quenching. Upon dissipation of membrane potential, an increase in fluorescence is observed due to DiSC3(5) being dispersed in the solution. Against B. subtilis and MRSA, both the compounds VanQbiph (4) and VanQAmC10 (8) depolarised the membrane within 2 minutes post-treatment at 10 μM (Fig. 2A and B). The depolarization occurred in a concentration-dependent manner (Fig. S2A ^†). […] Against stationary phase cells of MRSA also, rapid dissipation of membrane potential was observed within 2 minutes post-treatment with both VanQbiph (4) and VanQAmC10 (8) (Fig. 2C). […]
For assessing depolarisation against stationary phase cells of MRSA ATCC 33591, cells were grown to the stationary phase for 16 h. The culture was then diluted to an OD600 of 0.2 and the depolarisation assays was performed as described. The experiments were performed three times independently in duplicates and the graph is representative of the results from all experiments.
Cytoplasmic membrane depolarization assay5
Mid log phase MRSA were harvested (3500 rpm, 5 min), washed in 5 mM glucose and 5 mM HEPES buffer (pH 7.2) in 1:1 ratio and resuspended in 5 mM HEPES buffer, 5 mM glucose and 100 mM KCl solution in 1:1:1 ratio. Then 2 μM of 3, 3′-Dipropylthiadicarbocyanine iodide (DiSC3(5)) was added to bacterial suspension and pre-incubated for 45 min. The fluorescence was monitored at excitation wavelength of 622 nm and emission wavelength of 670 nm. Then 20 μL of test compound and vancomycin were added to black well plates containing bacterial suspension and DiSC3(5) after 2-4 min of fluorescence measurement. As a measure of membrane depolarization fluorescence was monitor for another 35 min. For assessing membrane […] against stationary phase cells of MRSA ATCC 33591, cells were grown to the stationary phase for 16 h. The culture was then diluted to an OD600 of 0.2 and the depolarisation assays was performed as described. The images are representative of results from three independent experiments done in triplicates […]
Glass cover slips 24 h post -treatment with the test compounds at the mentioned con centrations, […]

[1] = test system: PA R590 (MDR strain of P. aeruginosa); assay: MIC determination, micro-dilution broth; format: cell-based
Experimental: (§1) The increase in the carbon content of substituted moieties from six (1) to seven (2 and 3) to ten (5) to twelve (4), increased activity. […]
(§2) Test compound was assayed in a micro -dilution broth format as per the CLSI guideline. The bacterial freeze dried stock samples were stored at -80 °C. About 5 μL of these stocks were added to 3 mL of the respective broth and the culture was grown for 6 h at 37°C with prior to the experiments. This 6 h grown culture was diluted to give effective cell concentration of 10 5 CFU/mL which was then used for determining MIC. Compounds were serially diluted 2 -fold, in sterile millipore water and 50 μL of these serial dilutions were added to the wells of 96 well plate followed by the addition of about 150 μL of bacterial solution. The plates were then incubated for 18-24 h at 37 °C. The O.D. value at 600 nm was recorded using TECAN (Infinite series, M200 pro) Plate Reade r. Each concentration had triplicate values and the whole experiment was done at least twice and the MIC value was determined by taking the average of triplicate O. D. values for each concentration and plotting it against concentration. The data was then subjected to sigmoidal fitting. From the curve the MIC value was determined, as the point where the O. D. was similar to that of control having no bacteria.

AB R674 (A. baumannii) = assay: MIC determination, micro-dilution broth; format: cell-based
Experimental: as §1, §2

[2] = test system: AB 1425 (A. baumannii MTCC 1425); assay: MIC determination, micro-dilution broth; format: cell-based
Experimental: as §1, §2

[3] = test system: MRSA, methicillin-resistant S. aureus (ATCC 33591); assay: MIC determination, micro-dilution broth; format: cell-based; conditions: Staphylococcus aureus, read-out: Minimum inhibitory concentration, MRSA
Experimental: as §1, §2

B. subtilis 168 [4] = assay: Acute growth retardation / physiologically effective concentration; format: cell-based; conditions: exponentially growing B. subtilis
Source text: The mechanisms of action in Gram-positive bacteria were further examined in the model bacterium B. subtilis. The study of the mechanism of action of a drug requires live cells under antibiotic stress. A 30–50% growth inhibition upon treatment, triggers a stress response in the bacterial cell while allowing cell proliferation to progress at a level sufficient to study the effect of the compound. The lowest concentration at which this effect was observed, was termed the physiologically effective concentration (PEC). […] The acute effect of different antibiotic concentrations on exponentially growing bacterial cultures were tested to identify the PEC (Fig. 3B–D). […] The presence of cationic lipophilic moieties possibly result in higher accumulation in the membrane region leading to growth inhibition at lower concentrations. […]
Determination of Physiologically Effective Concentration7
Overnight cultures of B. subtilis 168 were grown in 50 mL flasks with 10 mL of media. Upon growing to mid-log phase (an OD500 between 0.5 and 1), bacteria was inoculated in 100mL BMM in a 500 ml flask. When the cultures reach an OD500 of 0.35, the bacteria is aliquoted into separate conicals (50 mL) with 5 ml and compounds are added. The O.D. of the solutions are recorded every 30 minutes. The concentration which retards the growth of bacteria was selected as the PEC. The experiments were performed two times independently and the images are representative of results from two independent experiments. The experiment was done together with the compound published in (J. Med. Chem. 64, 2021, 10185) and therefore the graph for vancomycin is the same. […]
(§3) Overnight bacterial cultures were inoculated in BMM and allowed to grow to an OD 500 of 0.35. 200 µL of the bacterial culture were incubated with compounds at 37 ̊C for 15 minutes. […]
(§4) BAC Light assay or pore formation assay
(§5) 0.35. 500 µL of the bacteria was then incubated with the compounds at their respective PECSs for 10 mins in the same media at 37 ̊C. The compound was then centrifuged at 13200 rpm and […]

B. subtilis 168 [5] = assay: Determination of MIC against B. subtilis; format: cell-based; conditions: read-out: MIC against B. subtilis
Experimental: Determination of MIC against B. subtilis
Overnight cultures of B. subtilis 168 were grown in 50 mL flasks in 5 mL BMM media. The bacteria in the mid-log phase were then incubated with compounds for 18 h at 37 ̊C in BMM media. The MIC was determined as the lowest concentration at which no visible bacterial OD […]
as §3, §4, §5

[6] = Pseudomonas aeruginosa, read-out: Minimum inhibitory concentration, PA R590
[7] = Acinetobacter baumannii, read-out: Minimum inhibitory concentration, AB R674
[8] = Acinetobacter baumannii, MTCC1425, read-out: Minimum inhibitory concentration, AB 1425

SMILES | time to membrane depolarisation post-treatment (MRSA) | time to dissipation of membrane potential post-treatment (MRSA) | MIC [1, 6] | MIC (AB R674 (A. baumannii); [7]) | MIC [2, 8] | MIC [3] | concentration showing growth retardation (inhibitory effect from) (B. subtilis 168 [4]) | MIC (B. subtilis 168 [5]; Bacillus subtilis, 168, 18 h) | MIC ([1]; Pseudomonas aeruginosa; read-out: Minimum inhibitory concentration, PA R590) | MIC (AB R674 (A. baumannii); Acinetobacter baumannii; read-out: Minimum inhibitory concentration, AB R674) | MIC ([2]; Acinetobacter baumannii, MTCC1425; read-out: Minimum inhibitory concentration, AB 1425) | MIC ([3]; MRSA ATCC 33591) | MIC (B. subtilis 168 [5]; Bacillus subtilis, 168, BMM media, 18 h) | effect on membrane potential (MRSA)
CCCCCCCCCCNC(=O)C[N+](C)(C)CCCNC(=O)C1NC(=O)C2NC(=O)C(NC(=O)C3NC(=O)C(CC(N)=O)NC(=O)C(NC(=O)C(CC(C)C)NC)C(O)c4ccc(c(Cl)c4)Oc4cc3cc(c4OC3OC(CO)C(O)C(O)C3OC3CC(C)(N)C(O)C(C)O3)Oc3ccc(cc3Cl)C2O)c2ccc(O)c(c2)-c2c(O)cc(O)cc21 (centres unmarked) [VanQAmC10 (8)] | ≤ 2 min | ≤ 2 min | 3.1 µM | 10 µM | 6.3 µM | 0.4 µM | 0.125 µM | 0.25 µM |  |  |  |  |  | 
CNC(CC(C)C)C(=O)NC1C(=O)NC(CC(N)=O)C(=O)NC2C(=O)NC3C(=O)NC(C(=O)NC(C(=O)NCCC[N+](C)(C)Cc4ccc(-c5ccccc5)cc4)c4cc(O)cc(O)c4-c4cc3ccc4O)C(O)c3ccc(c(Cl)c3)Oc3cc2cc(c3OC2OC(CO)C(O)C(O)C2OC2CC(C)(N)C(O)C(C)O2)Oc2ccc(cc2Cl)C1O (centres unmarked) [VanQbiph (4)] | ≤ 2 min | ≤ 2 min |  |  |  |  | 0.2 µM |  | > 30 µM | 24.5 µM | 15.7 µM | 0.5 µM | 0.15 µM | 
CN[C@H](CC(C)C)C(=O)N[C@H]1C(=O)N[C@@H](CC(N)=O)C(=O)N[C@H]2C(=O)N[C@H]3C(=O)N[C@H](C(=O)N[C@H](C(=O)O)c4cc(O)cc(O)c4-c4cc3ccc4O)[C@H](O)c3ccc(c(Cl)c3)Oc3cc2cc(c3O[C@@H]2O[C@H](CO)[C@@H](O)[C@H](O)[C@H]2O[C@H]2C[C@](C)(N)[C@H](O)[C@H](C)O2)Oc2ccc(cc2Cl)[C@H]1O [Vancomycin, reference compound] |  |  | 100 µM (≈ 145 µg/mL) | 100 µM (≈ 145 µg/mL) | 100 µM (≈ 145 µg/mL) | 0.6 µM (≈ 0.87 µg/mL) | 0.4 µM | 0.2 µM (≈ 0.29 µg/mL) |  |  |  |  |  | did not affect the membrane potential
